Laboratory results from patent US12077503B2, “Substituted cyclic amides and their use as herbicides” (FMC CORPORATION, priority 2015, dated 2024).

Key:
Type in all cases: in vivo
[1] = test system: ivy-leaved morning glory (Ipomoea hederacea); assay: Test G Pre-Emergence Protocol; settings: Ipomoea, pre-emergence, 312 h, evaluated after 13 days; for pest or weed control at 15.625 g/ha: 15.625 g ai/ha; for pest or weed control at 15.625 g/ha / pest or weed control at 250 g/ha: read-out: Morningglory, Ivy-leaved damage rating (100=total damage to plant; 0=no damage to plant); for pest or weed control at 62.5 g/ha: 62.5 g ai/ha, 100=total damage to plant, 0=no damage to plant, read-out: Morningglory, Ivy-leaved damage rating; for pest or weed control at 250 g/ha: 250 g ai/ha
How it was run: (§1)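 Scores are visual damage ratings from 0 (no damage) to 100 (total plant kill), taken 13 days after treatment. Compound was sprayed one day post-sowing at 15.625, 62.5 or 250 g/ha in 50:50 acetone/water with 0.5% Tween 20.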

corn (Zea mays) [2] = assay: Test G Pre-Emergence Protocol; settings: Zea mays, pre-emergence, 312 h, evaluated after 13 days; for plant injury at 15.625 g/ha: 15.625 g ai/ha; for plant injury at 15.625 g/ha / plant injury at 250 g/ha: read-out: Corn damage rating (100=total damage to plant; 0=no damage to plant); for plant injury at 62.5 g/ha: 62.5 g ai/ha, 100=total damage to plant, 0=no damage to plant, read-out: Corn damage rating; for plant injury at 250 g/ha: 250 g ai/ha
How it was run: as §1

[3] = test system: redroot pigweed (Amaranthus retroflexus); assay: Test G Pre-Emergence Protocol; settings: Amaranthus retroflexus, pre-emergence, 312 h, evaluated after 13 days; for pest or weed control at 15.625 g/ha: 15.625 g ai/ha; for pest or weed control at 15.625 g/ha / pest or weed control at 250 g/ha: read-out: Pigweed, Redroot damage rating (100=total damage to plant; 0=no damage to plant); for pest or weed control at 62.5 g/ha: 62.5 g ai/ha, 100=total damage to plant, 0=no damage to plant, read-out: Pigweed, Redroot damage rating; for pest or weed control at 250 g/ha: 250 g ai/ha
How it was run: as §1

[4] = test system: barnyardgrass (Echinochloa crus-galli); assay: Test G Pre-Emergence Protocol; settings: Echinochloa crus-galli, pre-emergence, 312 h, evaluated after 13 days; for pest or weed control at 15.625 g/ha: 15.625 g ai/ha; for pest or weed control at 15.625 g/ha / pest or weed control at 250 g/ha: read-out: Barnyardgrass damage rating (100=total damage to plant; 0=no damage to plant); for pest or weed control at 62.5 g/ha: 62.5 g ai/ha, 100=total damage to plant, 0=no damage to plant, read-out: Barnyardgrass damage rating; for pest or weed control at 250 g/ha: 250 g ai/ha
How it was run: as §1

[5] = test system: velvetleaf (Abutilon theophrasti); assay: Test G Pre-Emergence Protocol; settings: Abutilon theophrasti, pre-emergence, 312 h, evaluated after 13 days; for pest or weed control at 15.625 g/ha: 15.625 g ai/ha; for pest or weed control at 15.625 g/ha / pest or weed control at 250 g/ha: read-out: Velvetleaf damage rating (100=total damage to plant; 0=no damage to plant); for pest or weed control at 62.5 g/ha: 62.5 g ai/ha, 100=total damage to plant, 0=no damage to plant, read-out: Velvetleaf damage rating; for pest or weed control at 250 g/ha: 250 g ai/ha
How it was run: as §1

[6] = test system: giant foxtail (Setaria faberi); assay: Test G Pre-Emergence Protocol; settings: Setaria faberi, pre-emergence, 312 h, evaluated after 13 days; for pest or weed control at 15.625 g/ha: 15.625 g ai/ha; for pest or weed control at 15.625 g/ha / pest or weed control at 250 g/ha: read-out: Foxtail, Giant damage rating (100=total damage to plant; 0=no damage to plant); for pest or weed control at 62.5 g/ha: 62.5 g ai/ha, 100=total damage to plant, 0=no damage to plant, read-out: Foxtail, Giant damage rating; for pest or weed control at 250 g/ha: 250 g ai/ha
How it was run: as §1

[7] = test system: ivy-leaved morning glory (Ipomoea hederacea); assay: Test G Post-Emergence Protocol; settings: Ipomoea, post-emergence, 312 h, read-out: Morningglory, Ivy-leaved damage rating; for pest or weed control at 15.625 g/ha: 15.625 g ai/ha, evaluated after 13 days (100=total damage to plant; 0=no damage to plant); for pest or weed control at 62.5 g/ha: 62.5 g ai/ha; for pest or weed control at 62.5 g/ha / pest or weed control at 250 g/ha: evaluated after 13 days, 100=total damage to plant, 0=no damage to plant; for pest or weed control at 250 g/ha: 250 g ai/ha
How it was run: (§2)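 Eight days post-sowing, plants received a spray of test compound (acetone/water 50:50, 0.5% Tween 20) at 15.625, 62.5 or 250 g/ha. Glasshouse regime thereafter: 24/16 °C, 14 h light, 65% humidity. Assessment after 13 days on a 0–100 damage scale.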

corn (Zea mays) [8] = assay: Test G Post-Emergence Protocol; settings: Zea mays, post-emergence, 312 h, read-out: Corn damage rating; for plant injury at 15.625 g/ha: 15.625 g ai/ha, evaluated after 13 days (100=total damage to plant; 0=no damage to plant); for plant injury at 62.5 g/ha: 62.5 g ai/ha; for plant injury at 62.5 g/ha / plant injury at 250 g/ha: evaluated after 13 days, 100=total damage to plant, 0=no damage to plant; for plant injury at 250 g/ha: 250 g ai/ha
How it was run: as §2

[9] = test system: redroot pigweed (Amaranthus retroflexus); assay: Test G Post-Emergence Protocol; settings: Amaranthus retroflexus, post-emergence, 312 h, read-out: Pigweed, Redroot damage rating; for pest or weed control at 15.625 g/ha: 15.625 g ai/ha, evaluated after 13 days (100=total damage to plant; 0=no damage to plant); for pest or weed control at 62.5 g/ha: 62.5 g ai/ha; for pest or weed control at 62.5 g/ha / pest or weed control at 250 g/ha: evaluated after 13 days, 100=total damage to plant, 0=no damage to plant; for pest or weed control at 250 g/ha: 250 g ai/ha
How it was run: as §2

[10] = test system: barnyardgrass (Echinochloa crus-galli); assay: Test G Post-Emergence Protocol; settings: Echinochloa crus-galli, post-emergence, 312 h, read-out: Barnyardgrass damage rating; for pest or weed control at 15.625 g/ha: 15.625 g ai/ha, evaluated after 13 days (100=total damage to plant; 0=no damage to plant); for pest or weed control at 62.5 g/ha: 62.5 g ai/ha; for pest or weed control at 62.5 g/ha / pest or weed control at 250 g/ha: evaluated after 13 days, 100=total damage to plant, 0=no damage to plant; for pest or weed control at 250 g/ha: 250 g ai/ha
How it was run: as §2

[11] = test system: velvetleaf (Abutilon theophrasti); assay: Test G Post-Emergence Protocol; settings: Abutilon theophrasti, post-emergence, 312 h, read-out: Velvetleaf damage rating; for pest or weed control at 15.625 g/ha: 15.625 g ai/ha, evaluated after 13 days (100=total damage to plant; 0=no damage to plant); for pest or weed control at 62.5 g/ha: 62.5 g ai/ha; for pest or weed control at 62.5 g/ha / pest or weed control at 250 g/ha: evaluated after 13 days, 100=total damage to plant, 0=no damage to plant; for pest or weed control at 250 g/ha: 250 g ai/ha
How it was run: as §2

[12] = test system: giant foxtail (Setaria faberi); assay: Test G Post-Emergence Protocol; settings: Setaria faberi, post-emergence, 312 h, read-out: Foxtail, Giant damage rating; for pest or weed control at 15.625 g/ha: 15.625 g ai/ha, evaluated after 13 days (100=total damage to plant; 0=no damage to plant); for pest or weed control at 62.5 g/ha: 62.5 g ai/ha; for pest or weed control at 62.5 g/ha / pest or weed control at 250 g/ha: evaluated after 13 days, 100=total damage to plant, 0=no damage to plant; for pest or weed control at 250 g/ha: 250 g ai/ha
How it was run: as §2

Structure (SMILES)	pest or weed control at 15.625 g/ha [1] [%]	pest or weed control at 62.5 g/ha [1] [%]	pest or weed control at 250 g/ha [1] [%]	plant injury at 15.625 g/ha (corn (Zea mays) [2]) [%]	plant injury at 62.5 g/ha (corn (Zea mays) [2]) [%]	plant injury at 250 g/ha (corn (Zea mays) [2]) [%]	pest or weed control at 15.625 g/ha [3] [%]	pest or weed control at 62.5 g/ha [3] [%]	pest or weed control at 250 g/ha [3] [%]	pest or weed control at 15.625 g/ha [4] [%]	pest or weed control at 62.5 g/ha [4] [%]	pest or weed control at 250 g/ha [4] [%]	pest or weed control at 15.625 g/ha [5] [%]	pest or weed control at 62.5 g/ha [5] [%]	pest or weed control at 250 g/ha [5] [%]	pest or weed control at 15.625 g/ha [6] [%]	pest or weed control at 62.5 g/ha [6] [%]	pest or weed control at 250 g/ha [6] [%]	pest or weed control at 15.625 g/ha [7] [%]	pest or weed control at 62.5 g/ha [7] [%]	further results
CCOc1c(Cl)cc(C2CN(C)C(=O)C2C(=O)Nc2cccc(F)c2F)cc1OC (stereo not drawn) [Compound 1721]	0	0	0	10	0	0	0	0	0	0	50	80	0	0	0	30	60	90	0	40	pest or weed control at 250 g/ha [7]: 70%; plant injury at 15.625 g/ha (corn (Zea mays) [8]): 0%; plant injury at 62.5 g/ha (corn (Zea mays) [8]): 10%; plant injury at 250 g/ha (corn (Zea mays) [8]): 10%; pest or weed control at 15.625 g/ha [9]: 0%; pest or weed control at 62.5 g/ha [9]: 0%; pest or weed control at 250 g/ha [9]: 0%; pest or weed control at 15.625 g/ha [10]: 0%; pest or weed control at 62.5 g/ha [10]: 30%; pest or weed control at 250 g/ha [10]: 80%; pest or weed control at 15.625 g/ha [11]: 0%; pest or weed control at 62.5 g/ha [11]: 0%; pest or weed control at 250 g/ha [11]: 0%; pest or weed control at 15.625 g/ha [12]: 0%; pest or weed control at 62.5 g/ha [12]: 50%; pest or weed control at 250 g/ha [12]: 80%
Cc1ccc(C2CN(C)C(=O)C2C(=O)Nc2cccc(F)c2F)cc1[N+](=O)[O-] (stereo not drawn) [Compound 1722]	0	0	0	10	30	70	0	10	30	0	60	80	0	0	20	60	70	90	20	30	pest or weed control at 250 g/ha [7]: 70%; plant injury at 15.625 g/ha (corn (Zea mays) [8]): 10%; plant injury at 62.5 g/ha (corn (Zea mays) [8]): 0%; plant injury at 250 g/ha (corn (Zea mays) [8]): 80%; pest or weed control at 15.625 g/ha [9]: 0%; pest or weed control at 62.5 g/ha [9]: 10%; pest or weed control at 250 g/ha [9]: 30%; pest or weed control at 15.625 g/ha [10]: 10%; pest or weed control at 62.5 g/ha [10]: 60%; pest or weed control at 250 g/ha [10]: 80%; pest or weed control at 15.625 g/ha [11]: 0%; pest or weed control at 62.5 g/ha [11]: 10%; pest or weed control at 250 g/ha [11]: 10%; pest or weed control at 15.625 g/ha [12]: 60%; pest or weed control at 62.5 g/ha [12]: 70%; pest or weed control at 250 g/ha [12]: 80%
CCCOc1cc(C2CN(C)C(=O)C2C(=O)Nc2cccc(F)c2F)cc(C(F)(F)F)c1 (stereo not drawn) [Compound 1725]	0	0	0	0	0	30	0	0	20	20	50	70	0	0	0	20	50	80	30	70	pest or weed control at 250 g/ha [7]: 70%; plant injury at 15.625 g/ha (corn (Zea mays) [8]): 10%; plant injury at 62.5 g/ha (corn (Zea mays) [8]): 0%; plant injury at 250 g/ha (corn (Zea mays) [8]): 70%; pest or weed control at 15.625 g/ha [9]: 0%; pest or weed control at 62.5 g/ha [9]: 10%; pest or weed control at 250 g/ha [9]: 60%; pest or weed control at 15.625 g/ha [10]: 0%; pest or weed control at 62.5 g/ha [10]: 30%; pest or weed control at 250 g/ha [10]: 70%; pest or weed control at 15.625 g/ha [11]: 0%; pest or weed control at 62.5 g/ha [11]: 0%; pest or weed control at 250 g/ha [11]: 10%; pest or weed control at 15.625 g/ha [12]: 0%; pest or weed control at 62.5 g/ha [12]: 70%; pest or weed control at 250 g/ha [12]: 80%
